Laboratory results as given in patent EP4810052A2, “HCRHR2 SELECTIVE POLYPEPTIDES” (Gubra A/S, priority 2023, dated 2026).
Like-named read-outs stand apart in the source and are kept apart here. Starred links: 1 amine or outer side, 2 acyl side, 3 side chain; linkers in the order of their positions; H or OH if unused. Non-standard residues stand in square brackets, D forms with d. Residues, ends and D or L forms follow the SMILES beside them. Groups on a side chain read outwards from the residue. *: point of attachment. C20 diacid = O=C(O)CCCCCCCCCCCCCCCCCCC(=O)*; γGlu = O=C(O)[C@H](CCC(=O)[*:2])N[*:1]; NMeI = CC[C@H](C)[C@H](NC)C(=O)O; Nle = CCCC[C@H](N)C(=O)O; Ac5c = NC1(C(=O)O)CCCC1; AEEA = NCCOCCOCC(=O)O; Aib = CC(C)(N)C(=O)O

Experiments:
[1] = target: T1, hCRHR2 (Homo sapiens, UniProt Q13324); experiment: HTRF cAMP assay, determination of hCRHR2 potency (peptide libraries 5 conc., purified peptides 11 conc.); assay type: cell-based
T1 sequence (Q13324 1-411): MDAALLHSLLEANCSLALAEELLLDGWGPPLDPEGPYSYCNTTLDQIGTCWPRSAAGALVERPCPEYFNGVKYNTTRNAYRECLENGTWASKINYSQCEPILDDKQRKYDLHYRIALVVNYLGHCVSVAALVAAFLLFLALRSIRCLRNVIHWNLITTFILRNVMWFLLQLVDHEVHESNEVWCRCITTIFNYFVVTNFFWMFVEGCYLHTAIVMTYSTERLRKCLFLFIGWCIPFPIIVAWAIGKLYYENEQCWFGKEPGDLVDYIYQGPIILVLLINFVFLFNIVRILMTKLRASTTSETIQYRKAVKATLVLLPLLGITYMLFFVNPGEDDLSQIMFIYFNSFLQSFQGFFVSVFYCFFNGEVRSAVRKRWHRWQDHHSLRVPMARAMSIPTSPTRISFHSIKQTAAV
In short: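 Cells: CHO-K1/hCRHR2 stable clone, suspension, freshly thawed. Readout: competitive TR-FRET, anti-cAMP cryptate vs cAMP-d2. Analysis: sigmoid variable-slope nonlinear regression → EC50.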

[2] = target: T2, hCRHR1 (Homo sapiens, UniProt P34998); experiment: HTRF cAMP assay, determination of hCRHR1 potency (peptide libraries 5 conc., purified peptides 11 conc.); assay type: cell-based
T2 sequence (P34998 24-415): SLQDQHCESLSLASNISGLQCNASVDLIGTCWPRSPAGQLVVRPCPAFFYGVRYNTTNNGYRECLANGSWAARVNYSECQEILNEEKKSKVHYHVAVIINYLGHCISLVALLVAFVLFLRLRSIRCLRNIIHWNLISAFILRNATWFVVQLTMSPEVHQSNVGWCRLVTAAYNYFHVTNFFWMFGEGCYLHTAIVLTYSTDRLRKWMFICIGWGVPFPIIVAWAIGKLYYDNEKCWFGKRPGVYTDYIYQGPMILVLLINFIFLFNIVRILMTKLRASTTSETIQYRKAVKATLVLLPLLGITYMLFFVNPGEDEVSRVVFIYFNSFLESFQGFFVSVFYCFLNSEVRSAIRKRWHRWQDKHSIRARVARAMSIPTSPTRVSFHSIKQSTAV
In short: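 Cellular cAMP was read by time-resolved FRET between d2-labelled cAMP and cryptate anti-cAMP antibody. The cells were freshly thawed suspension CHO-K1 cells stably expressing human CRHR1.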

[3] = library peptides, matched molecular pairs L vs Nle in position X^38, read-out: Potency hCRHR2 pEC50 (converted)
[4] = library peptides, matched molecular pairs L vs Nle in position X^38, read-out: Potency hCRHR1 pEC50 (converted)
[5] = Table 4, library peptides having X^38 = Nle, read-out: hCRHR2 pEC50 (converted)
[6] = Table 4, library peptides having X^38 = Nle, read-out: hCRHR1 pEC50 (converted)

Structure (SMILES) | EC50 [1, 3] [nM] | EC50 [2, 4] [nM] | EC50 [1, 5] [nM] | EC50 [2, 6] [nM] | also measured
CC[C@H](C)[C@H](N)C(=O)N[C@H](C(=O)N[C@@H](CC(C)C)C(=O)N[C@@H](CO)C(=O)N[C@@H](CC(C)C)C(=O)N[C@@H](CC(=O)O)C(=O)NC1(C(=O)N2CCC[C@H]2C(=O)N[C@H](C(=O)NCC(=O)N[C@@H](CC(C)C)C(=O)N[C@@H](CC(C)C)C(=O)N[C@@H](CCC(N)=O)C(=O)N[C@H](C(=O)N[C@@H](CC(C)C)C(=O)N[C@@H](CC(C)C)C(=O)N[C@@H](CCC(=O)O)C(=O)N[C@@H](CCC(N)=O)C(=O)N[C@@H](C)C(=O)N[C@@H](CCCNC(=N)N)C(=O)N[C@@H](C)C(=O)N[C@@H](CCCNC(=N)N)C(=O)N[C@@H](CCC(N)=O)C(=O)N[C@@H](C)C(=O)N[C@@H](CCCNC(=N)N)C(=O)N[C@@H](CCC(=O)O)C(=O)N[C@@H](CCC(N)=O)C(=O)N[C@@H](C)C(=O)N[C@@H](CCCCNC(=O)COCCOCCNC(=O)COCCOCCNC(=O)CC[C@H](NC(=O)CC[C@H](NC(=O)CCCCCCCCCCCCCCCCCCC(=O)O)C(=O)O)C(=O)O)C(=O)N[C@H](C(=O)N[C@@H](CC(N)=O)C(=O)N[C@@H](C)C(=O)N[C@@H](CCC(=O)O)C(=O)N[C@H](C(=O)N[C@@H](CC(C)C)C(=O)N[C@@H](C)C(=O)N[C@@H](CCC(=O)O)C(=O)N[C@H](C(N)=O)C(C)C)[C@@H](C)CC)[C@@H](C)O)[C@@H](C)CC)[C@@H](C)CC)CCCC1)C(C)C [compound 78] (H-IVLSLD[Ac5c]PIGLLQILLEQARARQAREQAK([AEEA-AEEA-γGlu-γGlu-C20 diacid])TNAEILAEV-NH2) | 0.398 | 7.94 |  |  | 
CC[C@H](C)[C@H](N)C(=O)N[C@H](C(=O)N[C@@H](CC(C)C)C(=O)N[C@@H](CO)C(=O)N[C@@H](CC(C)C)C(=O)N[C@@H](CC(=O)O)C(=O)N[C@H](C(=O)N1CCC[C@H]1C(=O)N[C@H](C(=O)NCC(=O)N[C@@H](CC(C)C)C(=O)N[C@@H](CC(C)C)C(=O)N[C@@H](CCC(N)=O)C(=O)N[C@H](C(=O)N[C@@H](CC(C)C)C(=O)N[C@@H](CC(C)C)C(=O)N[C@@H](CO)C(=O)N[C@@H](CCC(N)=O)C(=O)N[C@@H](C)C(=O)N[C@@H](CCCNC(=N)N)C(=O)N[C@@H](C)C(=O)N[C@@H](CCCNC(=N)N)C(=O)N[C@@H](C)C(=O)N[C@@H](C)C(=O)N[C@@H](CCCNC(=N)N)C(=O)N[C@@H](CCC(=O)O)C(=O)N[C@@H](CCC(N)=O)C(=O)N[C@@H](C)C(=O)N[C@@H](CCCCNC(=O)COCCOCCNC(=O)COCCOCCNC(=O)CC[C@H](NC(=O)CC[C@H](NC(=O)CCCCCCCCCCCCCCCCCCC(=O)O)C(=O)O)C(=O)O)C(=O)N[C@H](C(=O)N[C@@H](CC(N)=O)C(=O)N[C@@H](C)C(=O)N[C@@H](CCC(=O)O)C(=O)N[C@H](C(=O)N[C@@H](CC(C)C)C(=O)N[C@@H](C)C(=O)N[C@@H](CCC(=O)O)C(=O)N[C@H](C(N)=O)C(C)C)[C@@H](C)CC)[C@@H](C)O)[C@@H](C)CC)[C@@H](C)CC)C(C)C)C(C)C [compound 82] (H-IVLSLDVPIGLLQILLSQARARAAREQAK([AEEA-AEEA-γGlu-γGlu-C20 diacid])TNAEILAEV-NH2) | 0.631 | 158000 |  |  | 
CC[C@H](C)[C@H](N)C(=O)N[C@H](C(=O)N[C@@H](CC(C)C)C(=O)N[C@@H](CO)C(=O)N[C@@H](CC(C)C)C(=O)N[C@@H](CC(=O)O)C(=O)N[C@H](C(=O)N1CCC[C@H]1C(=O)N[C@H](C(=O)NCC(=O)N[C@@H](CC(C)C)C(=O)N[C@@H](CC(C)C)C(=O)N[C@@H](CCC(N)=O)C(=O)N[C@H](C(=O)N[C@@H](CC(C)C)C(=O)N[C@@H](CC(C)C)C(=O)N[C@@H](CCC(=O)O)C(=O)N[C@@H](CCC(N)=O)C(=O)N[C@@H](C)C(=O)N[C@@H](CCCNC(=N)N)C(=O)N[C@@H](C)C(=O)N[C@@H](CCCNC(=N)N)C(=O)N[C@@H](C)C(=O)N[C@@H](CCC(N)=O)C(=O)N[C@@H](CCCNC(=N)N)C(=O)N[C@@H](CCC(N)=O)C(=O)N[C@@H](CCC(N)=O)C(=O)N[C@@H](C)C(=O)N[C@@H](CCCCNC(=O)COCCOCCNC(=O)COCCOCCNC(=O)CC[C@H](NC(=O)CC[C@H](NC(=O)CCCCCCCCCCCCCCCCCCC(=O)O)C(=O)O)C(=O)O)C(=O)N[C@H](C(=O)N[C@@H](CC(N)=O)C(=O)N[C@@H](C)C(=O)N[C@@H](CCC(=O)O)C(=O)N[C@H](C(=O)N[C@@H](CC(C)C)C(=O)N[C@@H](C)C(=O)N[C@@H](CCC(=O)O)C(=O)N[C@H](C(N)=O)C(C)C)[C@@H](C)CC)[C@@H](C)O)[C@@H](C)CC)[C@@H](C)CC)C(C)C)C(C)C [SEQ ID NO: 46] (H-IVLSLDVPIGLLQILLEQARARAQRQQAK([AEEA-AEEA-γGlu-γGlu-C20 diacid])TNAEILAEV-NH2) |  |  |  |  | EC50 ([1]; Table 3, matched molecular pairs X^38 L vs Nle, peptide library of Example 4, read-out: hCRHR2 pEC50 (converted)): 0.316 nM; EC50 ([2]; Table 3, matched molecular pairs X^38 L vs Nle, peptide library of Example 4, read-out: hCRHR1 pEC50 (converted)): 2510 nM
CCCC[C@H](NC(=O)[C@@H](NC(=O)[C@H](CCC(=O)O)NC(=O)C(C)(C)NC(=O)[C@H](CC(N)=O)NC(=O)[C@@H](NC(=O)[C@H](CCCCNC(=O)COCCOCCNC(=O)COCCOCCNC(=O)CC[C@H](NC(=O)CC[C@H](NC(=O)CCCCCCCCCCCCCCCCCCC(=O)O)C(=O)O)C(=O)O)NC(=O)[C@H](C)NC(=O)[C@H](CCC(N)=O)NC(=O)[C@H](CCC(=O)O)NC(=O)[C@H](CCCNC(=N)N)NC(=O)[C@H](C)NC(=O)[C@H](C)NC(=O)[C@H](CCCNC(=N)N)NC(=O)[C@H](C)NC(=O)[C@H](CCCNC(=N)N)NC(=O)[C@H](C)NC(=O)[C@H](CCC(N)=O)NC(=O)[C@@H](NC(=O)[C@H](CC(C)C)NC(=O)[C@H](CC(C)C)NC(=O)[C@@H](NC(=O)[C@H](CCC(N)=O)NC(=O)[C@H](CC(C)C)NC(=O)[C@H](CC(C)C)NC(=O)CNC(=O)[C@@H](NC(=O)[C@@H]1CCCN1C(=O)[C@@H](NC(=O)[C@H](CC(=O)O)NC(=O)[C@H](CC(C)C)NC(=O)[C@H](CO)NC(=O)[C@H](CC(C)C)NC(=O)[C@@H](NC(=O)[C@@H](NC)[C@@H](C)CC)C(C)C)C(C)C)[C@@H](C)CC)[C@@H](C)CC)C(C)C)[C@@H](C)O)[C@@H](C)CC)C(=O)N[C@@H](C)C(=O)N[C@@H](CCC(=O)O)C(=O)N[C@H](C(N)=O)C(C)C [compound 231] (H-[NMeI]VLSLDVPIGLLQILLVQARARAAREQAK([AEEA-AEEA-γGlu-γGlu-C20 diacid])TN[Aib]EI[Nle]AEV-NH2) |  |  | 0.0631 | 2510 | 
CCCC[C@H](NC(=O)[C@@H](NC(=O)[C@H](CCC(=O)O)NC(=O)[C@H](C)NC(=O)[C@H](CC(N)=O)NC(=O)C(C)(C)NC(=O)[C@H](CCCCNC(=O)COCCOCCNC(=O)COCCOCCNC(=O)CC[C@H](NC(=O)CC[C@H](NC(=O)CCCCCCCCCCCCCCCCCCC(=O)O)C(=O)O)C(=O)O)NC(=O)[C@H](C)NC(=O)[C@H](CCC(N)=O)NC(=O)[C@H](CCC(=O)O)NC(=O)[C@H](CCCNC(=N)N)NC(=O)[C@H](C)NC(=O)[C@H](C)NC(=O)[C@H](CCCNC(=N)N)NC(=O)[C@H](C)NC(=O)[C@H](CCCNC(=N)N)NC(=O)[C@H](C)NC(=O)[C@H](CCC(N)=O)NC(=O)CNC(=O)[C@H](CC(C)C)NC(=O)[C@H](CC(C)C)NC(=O)[C@@H](NC(=O)[C@H](CCC(N)=O)NC(=O)[C@H](CC(C)C)NC(=O)[C@H](CC(C)C)NC(=O)CNC(=O)[C@@H](NC(=O)[C@@H]1CCCN1C(=O)[C@@H](NC(=O)[C@H](CC(=O)O)NC(=O)[C@H](CC(C)C)NC(=O)[C@H](CO)NC(=O)[C@H](CC(C)C)NC(=O)[C@@H](NC(=O)[C@@H](NC)[C@@H](C)CC)C(C)C)C(C)C)[C@@H](C)CC)[C@@H](C)CC)[C@@H](C)CC)C(=O)N[C@@H](C)C(=O)N[C@@H](CCC(=O)O)C(=O)N[C@H](C(N)=O)C(C)C [compound 123] (H-[NMeI]VLSLDVPIGLLQILLGQARARAAREQAK([AEEA-AEEA-γGlu-γGlu-C20 diacid])[Aib]NAEI[Nle]AEV-NH2) |  |  | 0.00501 | 794 | 
